Toxic doses and inconclusive results are not listed.

The values below come from PubChem BioAssay AID328 (DTP/NCI, 2004).

The test relates to BDF1 mice, P388 leukemia ip, median survival T/C. In words: NCI In Vivo Anticancer Drug Screen. Data for tumor model P388 Leukemia (intraperitoneal) in B6D2F1 (BDF1) mice. The following applies: endpoint: median survival time, higher = longer survival. The method, boiled down: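 Read-out is survival of treated animals expressed relative to the vehicle group, as a T/C ratio.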

Setting [1] is: dose: 100.0 mg/kg/injection, schedule: Q04DX003 (ip), vehicle: Klucel (hydroxypropylcellulose) (HPC).
[2] abbreviates: dose: 100.0 mg/kg/injection, schedule: Q01DX009 (ip), vehicle: saline with Tween-80.
Setting [3] is: dose: 100.0 mg/kg/injection, schedule: Q04DX003 (ip), vehicle: saline with Tween-80.
Setting [4] is: dose: 200.0 mg/kg/injection, schedule: Q01DX009 (ip), vehicle: saline with Tween-80.
The mark [5] stands for this setting: dose: 200.0 mg/kg/injection, schedule: Q04DX003 (ip), vehicle: saline with Tween-80.
The mark [6] stands for this setting: dose: 400.0 mg/kg/injection, schedule: Q04DX003 (ip), vehicle: saline with Tween-80.
Where [7] appears, read: dose: 50.0 mg/kg/injection, schedule: Q01DX009 (ip), vehicle: saline with Tween-80.
Where [8] appears, read: dose: 50.0 mg/kg/injection, schedule: Q01DX001 (ip), vehicle: saline with Tween-80.
Where [9] appears, read: dose: 100.0 mg/kg/injection, schedule: Q01DX001 (ip), vehicle: saline with Tween-80.
The mark [10] stands for this setting: dose: 25.0 mg/kg/injection, schedule: Q04DX003 (ip), vehicle: water.
Where [11] appears, read: dose: 50.0 mg/kg/injection, schedule: Q04DX003 (ip), vehicle: water.

`[N-]=[N+]=C1C(=O)NN=C1c1ccccc1`: the T/C was 104 % of control (dose: 25.0 mg/kg/injection, schedule: Q04DX003 (ip), vehicle: Klucel (hydroxypropylcellulose) (HPC)); 114 % of control (dose: 50.0 mg/kg/injection, schedule: Q04DX003 (ip), vehicle: Klucel (hydroxypropylcellulose) (HPC)); 95 % of control under setting [1].
Consider `CCCCC(CC)(CC(=O)O)CC(=O)O`, for which the T/C (dose: 40.0 mg/kg/injection, schedule: Q01DX010 (ip), vehicle: water) is 118 % of control.
As for `O=C1CC(c2ccc(Cl)cc2)NC(c2ccc(Cl)cc2)C1` (centres undefined), the T/C under setting [2] was 101 % of control; the T/C under setting [3] is 107 % of control; the T/C (dose: 150.0 mg/kg/injection, schedule: Q01DX009 (ip), vehicle: saline with Tween-80) was 111 % of control; the T/C under setting [4] was 116 % of control; the T/C under setting [5] was 100 % of control; the T/C under setting [6] was 107 % of control.
Take `CC1CCCCC12OCCO2` (centres undefined): the T/C runs as follows: under setting [7], 100 % of control; under setting [2], 113 % of control; under setting [3], 100 % of control; under setting [4], 104 % of control; under setting [5], 109 % of control; under setting [6], 100 % of control.
For the compound `CCCCCCCCCCCCCCCCCCOc1cccc(C(F)(F)F)c1`, the T/C is, setting by setting: under setting [8], 105 % of control; under setting [9], 100 % of control; (dose: 200.0 mg/kg/injection, schedule: Q01DX001 (ip), vehicle: saline with Tween-80) 90 % of control.
Consider `OCC(O)C(O)C(O)C(O)C(O)CO` (centres undefined), for which the T/C is, setting by setting: (dose: 100.0 mg/kg/injection, schedule: Q01DX010 (ip), vehicle: carboxymethylcellulose (CMC)) 100 % of control; (dose: 100.0 mg/kg/injection, schedule: Q01DX010 (ip), vehicle: saline) 95 % of control; (dose: 400.0 mg/kg/injection, schedule: Q01DX010 (ip), vehicle: carboxymethylcellulose (CMC)) 100 % of control; (dose: 400.0 mg/kg/injection, schedule: Q01DX010 (ip), vehicle: saline) 100 % of control.
As to `CCOC(=O)c1ccc(=O)n(C(C)C)c1`, the T/C reads like this: under setting [1], 90 % of control; (dose: 200.0 mg/kg/injection, schedule: Q04DX003 (ip), vehicle: Klucel (hydroxypropylcellulose) (HPC)) 90 % of control; (dose: 400.0 mg/kg/injection, schedule: Q04DX003 (ip), vehicle: Klucel (hydroxypropylcellulose) (HPC)) 100 % of control.
Consider `COc1cc2c(cc1OC)C(C#N)N(C(=O)c1ccccc1)C=C2` (centres undefined), for which the T/C under setting [10] is 114 % of control; the T/C under setting [11] was 99 % of control; the T/C (dose: 100.0 mg/kg/injection, schedule: Q04DX003 (ip), vehicle: water) was 94 % of control; the T/C (dose: 200.0 mg/kg/injection, schedule: Q04DX003 (ip), vehicle: water) was 94 % of control; the T/C (dose: 400.0 mg/kg/injection, schedule: Q04DX003 (ip), vehicle: water) is 112 % of control.
Turning to `Cc1cc(C)c(C)[nH]1`, the T/C runs as follows: (dose: 3.12 mg/kg/injection, schedule: Q01DX009 (ip), vehicle: water) 87 % of control; (dose: 6.25 mg/kg/injection, schedule: Q01DX009 (ip), vehicle: water) 111 % of control; (dose: 12.5 mg/kg/injection, schedule: Q01DX009 (ip), vehicle: water) 105 % of control; (dose: 12.5 mg/kg/injection, schedule: Q04DX003 (ip), vehicle: water) 91 % of control; (dose: 25.0 mg/kg/injection, schedule: Q01DX009 (ip), vehicle: water) 103 % of control; under setting [10], 114 % of control. Besides, the T/C (dose: 50.0 mg/kg/injection, schedule: Q01DX009 (ip), vehicle: water) is 97 % of control and the T/C under setting [11] was 107 % of control.
With `CC(=O)CC(C)=O.CC(=O)CC(C)=O.c1cc[c]([Sn][c]2ccccc2)cc1`, the T/C was 160 % of control (dose: 100.0 mg/kg/injection, schedule: Q01DX001 (ip), vehicle: Klucel (hydroxypropylcellulose) (HPC)) and 166 % of control (dose: 200.0 mg/kg/injection, schedule: Q01DX001 (ip), vehicle: Klucel (hydroxypropylcellulose) (HPC)).
Turning to `CC12OC1C(=O)c1ccccc1C2=O` (centres undefined), the T/C is 87 % of control (dose: 0.75 mg/kg/injection, schedule: Q01DX009 (ip), vehicle: Klucel (hydroxypropylcellulose) (HPC)); 100 % of control (dose: 1.5 mg/kg/injection, schedule: Q01DX009 (ip), vehicle: Klucel (hydroxypropylcellulose) (HPC)); 89 % of control (dose: 2.5 mg/kg/injection, schedule: Q01DX009 (ip), vehicle: Klucel (hydroxypropylcellulose) (HPC)); 95 % of control (dose: 3.0 mg/kg/injection, schedule: Q01DX009 (ip), vehicle: Klucel (hydroxypropylcellulose) (HPC)); 92 % of control (dose: 5.0 mg/kg/injection, schedule: Q04DX003 (ip), vehicle: Klucel (hydroxypropylcellulose) (HPC)); 92 % of control (dose: 10.0 mg/kg/injection, schedule: Q04DX003 (ip), vehicle: Klucel (hydroxypropylcellulose) (HPC)).
As for `C=C1C(=O)OC2/C=C(\C)CC(O)/C=C(\C)CC(OC(=O)/C(=C\C)COC(C)=O)C12` (centres undefined), the T/C (dose: 20.0 mg/kg/injection, schedule: Q01DX009 (ip), vehicle: saline) is 122 % of control; the T/C (dose: 44.0 mg/kg/injection, schedule: Q01DX009 (ip), vehicle: saline) is 150 % of control; the T/C (dose: 66.0 mg/kg/injection, schedule: Q01DX009 (ip), vehicle: saline) is 122 % of control.
In the case of `O=[N+]([O-])c1ccc(S(=O)(=O)Nc2ccc(-c3ccccc3)cc2)cc1`, the T/C is, setting by setting: (dose: 100.0 mg/kg/injection, schedule: Q04DX003 (ip), vehicle: other) 96 % of control; (dose: 200.0 mg/kg/injection, schedule: Q04DX003 (ip), vehicle: other) 104 % of control; (dose: 400.0 mg/kg/injection, schedule: Q04DX003 (ip), vehicle: other) 100 % of control.
For the compound `O=C(C(=O)C(Br)Br)C(Br)Br`, under “dose: 6.25 mg/kg/injection, schedule: Q01DX009 (ip), vehicle: DMSO”, the T/C is 97 % of control.
In the case of `CN(C)CCCNC1=C(Cl)C(=O)c2ccccc2C1=O`, the T/C (dose: 6.25 mg/kg/injection, schedule: Q01DX009 (ip), vehicle: Klucel (hydroxypropylcellulose) (HPC)) was 114 % of control; the T/C (dose: 12.5 mg/kg/injection, schedule: Q01DX009 (ip), vehicle: Klucel (hydroxypropylcellulose) (HPC)) was 109 % of control; the T/C (dose: 25.0 mg/kg/injection, schedule: Q01DX009 (ip), vehicle: Klucel (hydroxypropylcellulose) (HPC)) was 116 % of control.
Regarding `c1cn[nH]c1`, the T/C was 100 % of control (dose: 4.0 mg/kg/injection, schedule: Q01DX010 (ip), vehicle: water) and 90 % of control (dose: 8.0 mg/kg/injection, schedule: Q01DX010 (ip), vehicle: water).
For `CN(C)CCCNc1c2ccccc2nc2cccc([N+](=O)[O-])c12`, the T/C is 124 % of control (dose: 0.2 mg/kg/injection, schedule: Q04DX003 (ip), vehicle: saline) and 101 % of control (dose: 0.5 mg/kg/injection, schedule: Q04DX003 (ip), vehicle: saline).
Consider `CCC(=O)O[C@H]1CC[C@H]2[C@@H]3C[C@H](C)C4=CC(=O)C=C[C@]4(C)[C@H]3C(=O)C[C@]12C`, for which the T/C is 100 % of control under setting [2]; 91 % of control under setting [4]; 95 % of control (dose: 400.0 mg/kg/injection, schedule: Q01DX009 (ip), vehicle: saline with Tween-80).
On to `O=c1cc(O)[nH]c(=S)[nH]1`, for which the T/C is 103 % of control under setting [7], 99 % of control under setting [2] and 88 % of control under setting [4].
With `C=CCCCCCCCCC(=O)N(C)OC`, the T/C reads like this: (dose: 25.0 mg/kg/injection, schedule: Q01DX001 (ip), vehicle: saline with Tween-80) 95 % of control; under setting [8], 109 % of control; under setting [9], 118 % of control.
As for `CCCNC(=O)/C=C\S(=O)CCC` (centres undefined), the T/C was 100 % of control (dose: 25.0 mg/kg/injection, schedule: Q01DX009 (ip), vehicle: saline with Tween-80); 98 % of control under setting [7]; 112 % of control under setting [2].
As to `O=[N+]([O-])c1cccc2c[n+](Cc3ccccc3)ccc12`, the T/C (dose: 12.5 mg/kg/injection, schedule: Q01DX009 (ip), vehicle: saline with Tween-80) is 117 % of control.
